Source: patent publication US20070282007A1, “TREATMENT OF PAIN DISORDERS WITH trans 4-(3,4-DICHLOROPHENYL)-1,2,3,4-TETRAHYDRO-1-NAPHTHALENAMINE AND ITS FORMAMIDE” (SEPRACOR INC., priority 2006, published 2007)

Legend:
[1] = target: B2 (Homo sapiens, UniProt P30411); assay: In vitro radioligand binding assay, B2
[2] = target: H2 (Homo sapiens, UniProt P25021); assay: In vitro radioligand binding assay, H2; conditions: read-out: Ki, H2
[3] = target: D1 (Homo sapiens, UniProt P21728); assay: In vitro radioligand binding assay, D1
[4] = target: T1, M5 (Homo sapiens, UniProt P08912); assay: In vitro radioligand binding assay, M5; conditions: read-out: Ki, M5
T1 sequence (P08912 1-532): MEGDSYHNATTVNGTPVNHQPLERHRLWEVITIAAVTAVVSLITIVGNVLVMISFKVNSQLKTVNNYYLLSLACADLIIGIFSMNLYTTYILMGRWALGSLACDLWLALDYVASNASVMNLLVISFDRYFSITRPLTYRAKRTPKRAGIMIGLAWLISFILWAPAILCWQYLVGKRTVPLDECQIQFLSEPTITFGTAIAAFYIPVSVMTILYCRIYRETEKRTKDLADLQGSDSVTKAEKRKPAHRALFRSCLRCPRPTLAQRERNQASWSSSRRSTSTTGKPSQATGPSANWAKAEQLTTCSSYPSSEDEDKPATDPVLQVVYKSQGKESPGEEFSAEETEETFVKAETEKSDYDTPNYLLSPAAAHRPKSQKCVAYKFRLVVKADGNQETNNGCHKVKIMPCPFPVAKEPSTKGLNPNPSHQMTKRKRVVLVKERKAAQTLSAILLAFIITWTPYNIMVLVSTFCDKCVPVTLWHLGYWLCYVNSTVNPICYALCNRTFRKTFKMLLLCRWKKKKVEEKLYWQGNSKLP

[5] = system: Long-Evans derived rats; assay: Porsolt forced swim test; type: in vivo, rat; conditions: for Mean Immobility Time (% of Total) ± SEM, Day 2 Study: 3 administrations; for Mean Immobility Time (% of Total) ± SEM, Day 4 Study: 7 administrations
Description: Performance in the Porsolt forced swim test was evaluated for sertraline and Compound P following protocols outlined in Porsolt R. D., et al., Arch. Int. Pharmacodyn., 229: 327 ([…]).
The Porsolt forced swim test is a model of “behavioral despair”, which has been used as an in vivo model for assessing potential antidepressant-like activity. Both test articles were dissolved in physiological saline (vehicle) and administered intraperitoneally. […] Long-Evans derived rats were used.

[6] = system: Long-Evans derived rats; assay: Spontaneous locomotor activity study; type: in vivo, rat; conditions: mean ± SEM
Description: The effects on locomotor activity were studied in Long-Evans derived rats following protocol outlined in Dews P., Br. J. Pharmacol., 8: 46 (1953).
This effect was still evident 2 hours following drug administration. On the basis of these studies, CNS effects and long duration of action may be anticipated at sufficient clinical doses.

[7] = system: Rat SNL Model; assay: SNL model of neuropathic pain, mechanical allodynia testing; type: in vivo
Description: (§1) The animals were anesthetized with isoflurane, the left L5 transverse process was removed, and the L5 and L6 spinal nerves were tightly ligated with 6-0 silk suture. The wound was then closed with internal sutures and external staples. Wound clips were removed 10-11 days following surgery.
Animals were placed on a perforated metallic platform and allowed to acclimate to their surroundings for a minimum of 30 minutes before testing. The mean and standard error of the mean (SEM) were determined for each animal in each treatment group. Since this stimulus is normally not considered painful, significant injury-induced increases in responsiveness in this test are interpreted as a measure of mechanical allodynia. Mechanical allodynia was evaluated 14 days post-surgery.
(§2) Ten rats were studied per group and the tests were performed blind. (1R,4S)-4-(3,4-dichlorophenyl)-1,2,3,4-tetrahydro-1-naphthalenamine (P) was evaluated at 3 doses (5, 10 and 15 mg/kg), administered orally and compared with a vehicle control group. Gabapentin (100 mg/kg) and duloxetine (30 mg/kg) administered orally under the same experimental conditions, were used as comparator substances. Mechanical allodynia and hyperalgesia testing were conducted at baseline and 1, 2 and 4 hours after test article administration.

[8] = system: Rat SNL Model; assay: SNL model of neuropathic pain, mechanical hyperalgesia testing; type: in vivo
Description: as §1
Mechanical hyperalgesia testing: Baseline, post-injury and post-treatment values for […] mechanical sensitivity were evaluated using a Paw Pressure Analgesymeter (7200, Ugo Basile, Comerio, Italy) which generates a linearly increasing mechanical force. The mechanical nociceptive stimulus was applied to the plantar surface of the hind paws by a dome-shaped plastic tip placed between the 3rd and 4th metatarsus. […] Mechanical thresholds were defined as the force in grams at the first pain behavior, which includes paw withdrawal, struggle and/or vocalization. Paw pressure test was performed on each hind paw for each animal. The mean and standard error of the mean (SEM) were determined for each paw, in each treatment group. Mechanical hyperalgesia was evaluated 24 days post-surgery.
as §2

B2, sequence (P30411 whole entry): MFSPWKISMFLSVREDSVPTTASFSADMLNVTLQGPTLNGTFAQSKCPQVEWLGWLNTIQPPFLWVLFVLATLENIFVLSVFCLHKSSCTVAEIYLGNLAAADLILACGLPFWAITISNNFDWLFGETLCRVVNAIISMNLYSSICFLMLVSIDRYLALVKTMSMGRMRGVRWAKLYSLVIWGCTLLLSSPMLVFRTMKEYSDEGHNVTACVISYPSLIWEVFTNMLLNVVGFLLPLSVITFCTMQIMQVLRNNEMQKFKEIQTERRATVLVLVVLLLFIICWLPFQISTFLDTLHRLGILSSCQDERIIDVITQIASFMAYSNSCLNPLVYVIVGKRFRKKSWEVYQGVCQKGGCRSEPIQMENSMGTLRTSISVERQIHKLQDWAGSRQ
D1, sequence (P21728 whole entry): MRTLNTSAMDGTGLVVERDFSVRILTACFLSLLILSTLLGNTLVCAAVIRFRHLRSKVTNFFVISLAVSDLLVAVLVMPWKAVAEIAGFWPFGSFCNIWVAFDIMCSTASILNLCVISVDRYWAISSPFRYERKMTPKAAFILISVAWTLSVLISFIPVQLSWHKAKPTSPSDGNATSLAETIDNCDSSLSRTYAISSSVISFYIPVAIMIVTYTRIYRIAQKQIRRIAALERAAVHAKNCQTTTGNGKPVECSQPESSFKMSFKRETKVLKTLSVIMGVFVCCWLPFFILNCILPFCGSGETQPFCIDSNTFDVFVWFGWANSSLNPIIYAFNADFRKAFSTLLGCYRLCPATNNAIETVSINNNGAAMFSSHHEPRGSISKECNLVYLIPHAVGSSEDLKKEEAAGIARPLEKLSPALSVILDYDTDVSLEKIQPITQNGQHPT
H2, sequence (P25021 whole entry): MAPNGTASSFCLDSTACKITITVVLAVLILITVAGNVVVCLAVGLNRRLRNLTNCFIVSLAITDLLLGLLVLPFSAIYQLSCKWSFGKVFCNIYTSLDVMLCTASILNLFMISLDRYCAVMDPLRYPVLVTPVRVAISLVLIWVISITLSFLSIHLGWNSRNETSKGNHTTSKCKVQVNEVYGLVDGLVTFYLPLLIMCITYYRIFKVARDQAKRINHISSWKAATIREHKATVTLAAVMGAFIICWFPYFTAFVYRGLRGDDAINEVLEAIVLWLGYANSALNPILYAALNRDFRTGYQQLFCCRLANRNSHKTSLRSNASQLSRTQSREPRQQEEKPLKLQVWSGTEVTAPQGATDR

SMILES: N[C@@H]1CC[C@@H](c2ccc(Cl)c(Cl)c2)c2ccccc21 [Compound P, (1R,4S)-trans 4-(3,4-dichlorophenyl)-1,2,3,4-tetrahydro-1-napthalenamine]
- Ki [1]: 1.5 µM
- Ki [2]: 4 µM
- Ki [3]: 6.8 µM
- Ki [4]: 8.4 µM
- Mean Immobility Time (% of Total) ± SEM, Day 2 Study ([5]; 1.25 mg/kg i.p.): 77 ± 3 % of Total
- Mean Immobility Time (% of Total) ± SEM, Day 4 Study ([5]; 1.25 mg/kg i.p.): 69 ± 4 % of Total
- Mean Immobility Time (% of Total) ± SEM, Day 2 Study ([5]; 2.5 mg/kg i.p.): 48 ± 6 % of Total
- Mean Immobility Time (% of Total) ± SEM, Day 4 Study ([5]; 2.5 mg/kg i.p.): 46 ± 8 % of Total
- Mean Immobility Time (% of Total) ± SEM, Day 2 Study ([5]; 5.0 mg/kg i.p.): 49 ± 5 % of Total
- Mean Immobility Time (% of Total) ± SEM, Day 4 Study ([5]; 5.0 mg/kg i.p.): 19 ± 6 % of Total
- Total Activity Counts, 71–80 Minutes ([6]; 2.5 mg/kg single i.p. dose): 49 ± 6
- Total Activity Counts, 91–100 Minutes ([6]; 2.5 mg/kg single i.p. dose): 54 ± 9
- Total Activity Counts, 111–120 Minutes ([6]; 2.5 mg/kg single i.p. dose): 34 ± 9
- Total Activity Counts, Total 1st Hour ([6]; 2.5 mg/kg single i.p. dose): 577 ± 54^1
- Total Activity Counts, Total 2nd Hour ([6]; 2.5 mg/kg single i.p. dose): 257 ± 36
- Total Activity Counts, 71–80 Minutes ([6]; 5.0 mg/kg single i.p. dose): 38 ± 3
- Total Activity Counts, 91–100 Minutes ([6]; 5.0 mg/kg single i.p. dose): 26 ± 26
- Total Activity Counts, 111–120 Minutes ([6]; 5.0 mg/kg single i.p. dose): 23 ± 14
- Total Activity Counts, Total 1st Hour ([6]; 5.0 mg/kg single i.p. dose): 444 ± 91
- Total Activity Counts, Total 2nd Hour ([6]; 5.0 mg/kg single i.p. dose): 160 ± 32
- Mechanical Allodynia, Paw Withdrawal Threshold (Mean ± SEM) ([7]; 5 mg/kg PO, 0 h (Baseline)): 3.1 ± 0.2 g
- Mechanical Allodynia, Paw Withdrawal Threshold (Mean ± SEM) ([7]; 5 mg/kg PO, 1 h): 3.7 ± 0.3 g
- Mechanical Allodynia, Paw Withdrawal Threshold (Mean ± SEM) ([7]; 5 mg/kg PO, 2 h): 3.2 ± 0.2 g
- Mechanical Allodynia, Paw Withdrawal Threshold (Mean ± SEM) ([7]; 5 mg/kg PO, 4 h): 3.9 ± 0.2 g
- Mechanical Allodynia, Paw Withdrawal Threshold (Mean ± SEM) ([7]; 10 mg/kg PO, 0 h (Baseline)): 2.8 ± 0.2 g
- Mechanical Allodynia, Paw Withdrawal Threshold (Mean ± SEM) ([7]; 10 mg/kg PO, 1 h): 5.0 ± 0.3 g
- Mechanical Allodynia, Paw Withdrawal Threshold (Mean ± SEM) ([7]; 10 mg/kg PO, 2 h): 5.7 ± 0.5 g
- Mechanical Allodynia, Paw Withdrawal Threshold (Mean ± SEM) ([7]; 10 mg/kg PO, 4 h): 6.6 ± 0.4 g
- Mechanical Allodynia, Paw Withdrawal Threshold (Mean ± SEM) ([7]; 15 mg/kg PO, 0 h (Baseline)): 2.9 ± 0.1 g
- Mechanical Allodynia, Paw Withdrawal Threshold (Mean ± SEM) ([7]; 15 mg/kg PO, 1 h): 8.8 ± 0.6 g
- Mechanical Allodynia, Paw Withdrawal Threshold (Mean ± SEM) ([7]; 15 mg/kg PO, 2 h): 7.5 ± 0.5 g
- Mechanical Allodynia, Paw Withdrawal Threshold (Mean ± SEM) ([7]; 15 mg/kg PO, 4 h): 13.6 ± 0.3 g
- Mechanical Hyperalgesia, Paw Pressure Threshold (Mean ± SEM) ([8]; 5 mg/kg PO, 0 h (Baseline)): 147 ± 17 g
- Mechanical Hyperalgesia, Paw Pressure Threshold (Mean ± SEM) ([8]; 5 mg/kg PO, 1 h): 183 ± 35 g
- Mechanical Hyperalgesia, Paw Pressure Threshold (Mean ± SEM) ([8]; 5 mg/kg PO, 2 h): 240 ± 32 g
- Mechanical Hyperalgesia, Paw Pressure Threshold (Mean ± SEM) ([8]; 5 mg/kg PO, 4 h): 257 ± 37 g
- Mechanical Hyperalgesia, Paw Pressure Threshold (Mean ± SEM) ([8]; 10 mg/kg PO, 0 h (Baseline)): 152 ± 18 g
- Mechanical Hyperalgesia, Paw Pressure Threshold (Mean ± SEM) ([8]; 10 mg/kg PO, 1 h): 213 ± 32 g
- Mechanical Hyperalgesia, Paw Pressure Threshold (Mean ± SEM) ([8]; 10 mg/kg PO, 2 h): 309 ± 27 g
- Mechanical Hyperalgesia, Paw Pressure Threshold (Mean ± SEM) ([8]; 10 mg/kg PO, 4 h): 282 ± 30 g
- Mechanical Hyperalgesia, Paw Pressure Threshold (Mean ± SEM) ([8]; 15 mg/kg PO, 0 h (Baseline)): 164 ± 22 g
- Mechanical Hyperalgesia, Paw Pressure Threshold (Mean ± SEM) ([8]; 15 mg/kg PO, 1 h): 281 ± 37 g
- Mechanical Hyperalgesia, Paw Pressure Threshold (Mean ± SEM) ([8]; 15 mg/kg PO, 2 h): 251 ± 37 g
- Mechanical Hyperalgesia, Paw Pressure Threshold (Mean ± SEM) ([8]; 15 mg/kg PO, 4 h): 269 ± 37 g
